From patent publication US10667518B2, “Pesticidally active heterocyclic derivatives with sulphur containing substituents” (SYNGENTA PARTICIPATIONS AG, priority 2016, dated 2020)

Legend:
Format in all cases: in vivo
[1] = system: Spodoptera littoralis (Egyptian Cotton Leaf Worm); assay: Spodoptera littoralis (Egyptian cotton leaf worm) test on sprayed cotton leaf discs; details: foliar, 72 h, application rate of 200 ppm, L1 larvae, 3 days after infestation, in comparison to untreated samples, read-out: control (mortality, anti-feeding effect, or growth inhibition)
Procedure: Example B8: Spodoptera littoralis (Egyptian Cotton Leaf Worm)
Cotton leaf discs were placed onto agar in 24-well microtiter plates and sprayed with aqueous test solutions prepared from 10′000 ppm DMSO stock solutions. After drying the leaf discs were infested with five L1 larvae. The samples were assessed for mortality, anti-feeding effect, and growth inhibition in comparison to untreated samples 3 days after infestation. Control of Spodoptera littoralis by a test sample is given when at least one of the categories mortality, anti-feedant effect, and growth inhibition is higher than the untreated sample.

[2] = system: Plutella xylostella (Diamond Back Moth); assay: Plutella xylostella (diamond back moth) artificial diet test; details: 120 h, application rate of 200 ppm, L2 larvae, artificial diet treated by pipetting, 5 days after infestation, in comparison to untreated samples, read-out: effect in at least one of the two categories (mortality or growth inhibition)
Procedure: Example B7: Plutella xylostella (Diamond Back Moth)
(§1) 24-well microtiter plates with artificial diet were treated with aqueous test solutions prepared from 10′000 ppm DMSO stock solutions by pipetting. After drying, the plates were infested with L2 larvae (10 to 15 per well). The samples were assessed for mortality and growth inhibition in comparison to untreated samples 5 days after infestation.
(§2) The following compounds gave an effect of at least 80% in at least one of the two categories (mortality or growth inhibition) at an application rate of 200 ppm: P1, P2, P3, P4.

[3] = system: Diabrotica balteata (Corn Root Worm); assay: Diabrotica balteata (corn root worm) test on sprayed maize sprouts; details: 96 h, application rate of 200 ppm, L2 larvae, 4 days after infestation, in comparison to untreated samples, read-out: effect in at least one of the two categories (mortality or growth inhibition)
Procedure: Example B2: Diabrotica balteata (Corn Root Worm)
as §1, with “Maize sprouts placed onto an agar layer in 24-well” for “24-well”, “plates” for “plates with artificial diet”, “spraying.” for “pipetting.”, “(6” for “(10”, “10” for “15”, “4” for “5”
as §2

CCS(=O)(=O)c1cc(-c2cc(F)cc(F)c2)cnc1-n1cc2ncc(C(F)(F)F)cc2n1 [P1, 2-[5-(3,5-difluorophenyl)-3-ethylsulfonyl-2-pyridyl]-6-(trifluoromethyl)pyrazolo[4,3-b]pyridine]
≥ 80%: percent control (mortality, anti-feedant effect or growth inhibition) at 200 ppm [1] | percent effect (mortality or growth inhibition) at 200 ppm [2] | percent effect (mortality or growth inhibition) at 200 ppm [3]

CCS(=O)(=O)c1cc(-c2cccc(F)c2)cnc1-n1cc2ncc(C(F)(F)F)cc2n1 [P2]
≥ 80%: percent control (mortality, anti-feedant effect or growth inhibition) at 200 ppm [1] | percent effect (mortality or growth inhibition) at 200 ppm [2] | percent effect (mortality or growth inhibition) at 200 ppm [3]

CCS(=O)(=O)c1cc(-c2cc(F)cc(F)c2)cnc1-n1cc2ccc(C(F)(F)F)cc2n1 [P3, 2-[5-(3,5-difluorophenyl)-3-ethylsulfonyl-2-pyridyl]-6-(trifluoromethyl)indazole]
≥ 80%: percent control (mortality, anti-feedant effect or growth inhibition) at 200 ppm [1] | percent effect (mortality or growth inhibition) at 200 ppm [2] | percent effect (mortality or growth inhibition) at 200 ppm [3]

CCS(=O)(=O)c1cc(-c2cccc(F)c2)cnc1-n1cc2ccc(C(F)(F)F)cc2n1 [P4]
≥ 80%: percent control (mortality, anti-feedant effect or growth inhibition) at 200 ppm [1] | percent effect (mortality or growth inhibition) at 200 ppm [2] | percent effect (mortality or growth inhibition) at 200 ppm [3]
